Reference: PMC2453235, “Identification and Rational Redesign of Peptide Ligands to CRIP1, A Novel Biomarker for Cancers” (PLoS Computational Biology, 2008)
Where a SMILES comes first, the peptide text is derived from it. Bridges are numbered along the chain shown (N, C = ends). Where no end group is shown, it is not given here. The star is where a group is joined. 5FAM = O=C1OC2(c3ccc(O)cc3Oc3cc(O)ccc32)c2ccc(C(=O)*)cc21

Columns and labels:
CRIP1 [1] = molecular target: T1, CRIP1 (Homo sapiens, UniProt P50238); assay: ELISA of individual phage clones binding to immobilized CRIP1; details: purified chimeric CRIP1 not reacted with enterokinase
T1 construct: enterokinase cleavage site and vector linker residues (N); made in house; host or cells: E. coli (pHAT10-CRIP1, IPTG induction)
T1 sequence (P50238 1-77): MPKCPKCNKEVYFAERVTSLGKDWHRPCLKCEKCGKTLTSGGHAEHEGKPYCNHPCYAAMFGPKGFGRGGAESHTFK
From the text: To select clones for further analysis, we used ELISA to determine the relative binding affinities of selected individual phage clones to purified CRIP1 (see Methods and Figure S3). For these studies the purified chimeric CRIP1 was not reacted with enterokinase.
Supplementary file pcbi.1000138.s003.tif: Figure S3 Relative estimates of peptide affinity for CRIP1. Phage binding against immobilized CRIP-1. (0.38 MB TIF) Click here for additional data file.

CRIP1 [2] = molecular target: T1, CRIP1; assay: Phage display panning (Ph.D.-C7C library), frequency of enriched sequences; format: binding; details: 4 rounds of panning against enterokinase-truncated CRIP1, 29 phage inserts sequenced
Method: In order to generate CRIP1 protein that was as similar as possible to endogenous CRIP1, enterokinase cleavage was performed on purified CRIP1. Uncleaved contaminating HIS-tagged CRIP1 as well as HIS-tagged peptides were removed by re-running the digest over the CellThru resin and retaining the flow thru. […] After four rounds of positive selection against enterokinase-truncated CRIP1, 29 phage DNA inserts were sequenced using a 96 gIII primer (5′-^HOCCC TCA TAG TTA GCG TAA CG-3′). Sequencing verified that 18 of the 29 phagotopes were from the cysteine-constrained phage library, Table 1. Many of the peptide sequences contained similar motifs and six sequences occurred in more than one phagotope. The peptides A1 and C5 were identified four times, C1 three times, and A9, B1, and B5 twice. However, even accounting for conserved amino acid substitutions, no clear motif could be identified.
CRIP1 was digested with enterokinase (Roche Diagnostics, Inc.) to remove the His tag and then was used as bait for 4 rounds of panning with the Ph.D.-C7C Phage Display Peptide Library (New England Biolabs). The nucleotide sequence of the gene III insert was determined by sequencing the phage, and the amino acid sequence of the insert was deduced from the nucleotide sequence, shown in Table 1.

[3] = molecular target: T2, Cysteine-rich intestinal protein 1 (CRIP1), purified protein coated on plates for the peptide binding assays (human, UniProt P50238 1-77); assay: saturation binding of FITC-labelled peptide to protein-coated plates (fluorescence read-out); CRIP1 coated on 96-well plates (100 µg/ml in PBS, overnight 4°C), blocked with 0.5% BSA in TBS; FITC peptide 50 nM to 100 µM, 1 h at 37°C; non-specific binding with 1 mM unlabeled peptide; apparent Kd by non-linear regression; details: both partners purified
T2 construct: Cysteine-rich intestinal protein 1 (CRIP1), human; coding region of the cDNA, 77 amino acids; also called CRIP1 protein; source: bacteria (pHAT10-CRIP1, IPTG induced), purified (TALON CellThru resin)
T2 sequence (looked up): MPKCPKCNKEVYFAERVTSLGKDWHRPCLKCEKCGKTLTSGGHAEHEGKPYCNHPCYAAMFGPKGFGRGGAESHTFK

[4] = molecular target: T2, Cysteine-rich intestinal protein 1 …; assay: competitive binding on protein-coated plates (fluorescence read-out); CRIP1 coated on 96-well plates (100 µg/ml in PBS, overnight 4°C); 10 µM FITC-A1M held constant, unlabeled A1 or A1M 0 to 300 µM, 1 h at 37°C; one binding site model; details: both partners purified
[5] = molecular target: T2, Cysteine-rich intestinal protein 1 …; assay: saturation binding of FITC-labelled peptide to protein-coated plates (fluorescence read-out); data not shown; 'similar assays' to the saturation binding of FITC-A1M on coated CRIP1; apparent Kd; details: both partners purified

For `CC(C)C[C@@H]1NC(=O)[C@@H](N)CSSC[C@@H](C(=O)NCC(=O)NCC(=O)NCC(=O)N[C@@H](CO)C(=O)N[C@@H](CCCCN)C(N)=O)NC(=O)[C@H](CO)NC(=O)[C@H](CCCNC(=N)N)NC(=O)[C@H](Cc2c[nH]cn2)NC(=O)[C@H](CC(N)=O)NC(=O)[C@H](CC(=O)O)NC(=O)[C@H](CCCCN)NC1=O` [A1] (H-CLKDNHRSCGGGSK-NH2; disulfide 1-9; N-terminus assumed), the “relative binding affinity of phage clone” value (CRIP1 [1]) was “higher relative affinity”.

With `CC[C@H](C)[C@@H]1NC(=O)[C@@H]2CCCN2C(=O)[C@H](CC(=O)O)NC(=O)[C@H](Cc2ccc(O)cc2)NC(=O)[C@@H](N)CSSC[C@@H](C(=O)NCC(=O)NCC(=O)NCC(=O)N[C@@H](CO)C(=O)N[C@@H](CCCCNC(=O)c2ccc3c(c2)C(=O)OC32c3ccc(O)cc3Oc3cc(O)ccc32)C(N)=O)NC(=O)[C@H]([C@@H](C)O)NC(=O)[C@H](CCCNC(=N)N)NC(=O)[C@H](Cc2c[nH]c3ccccc23)NC1=O` [B5] (H-CYDPIWRTCGGGSK(5FAM)-NH2; disulfide 1-9; N-terminus assumed) the “relative binding affinity of phage clone” value (CRIP1 [1]) was “higher relative affinity”.

“APYNTLA (disulfide (positions not given here)) [A6, C7C phage display peptide APYNTLA]” was tested, and the “Frequency (number of phage clones with the sequence)” value (“Frequency” for short) (CRIP1 [2]) was 1.

With “DHRQGSS (disulfide (positions not given here)) [A5, C7C phage display peptide DHRQGSS]” the “Frequency” value (CRIP1 [2]) was 1.

For “FSTNMKT (disulfide (positions not given here)) [B3, C7C phage display peptide FSTNMKT]”, the “Frequency” value (CRIP1 [2]) was 1.

“HANFLHM (disulfide) [C2, C7C phage display peptide HANFLHM]” was tested, and the “Frequency” value (CRIP1 [2]) was 1.

With “LPAYSTY (disulfide (positions not given here)) [B9, C7C phage display peptide LPAYSTY]” the “Frequency” value (CRIP1 [2]) was 1.

For “PLFKGMS (disulfide (positions not given here)) [B7, C7C phage display peptide PLFKGMS]”, the “Frequency” value (CRIP1 [2]) was 1.

In the case of “RDSSAHQ (disulfide (positions not given here)) [B10, C7C phage display peptide RDSSAHQ]”, the “Frequency” value (CRIP1 [2]) is reported as 1.

With “RTTGAQT (disulfide (positions not given here)) [B4, C7C phage display peptide RTTGAQT]” the “Frequency” value (CRIP1 [2]) was 1.

In the case of “SLNTRSQ (disulfide (positions not given here)) [C9, C7C phage display peptide SLNTRSQ]”, the “Frequency” value (CRIP1 [2]) is reported as 1.

With “SPHIIAS (disulfide (positions not given here)) [A8, C7C phage display peptide SPHIIAS]” the “Frequency” value (CRIP1 [2]) was 1.

“SVPINDS (disulfide) [A3, C7C phage display peptide SVPINDS]” was tested, and the “Frequency” value (CRIP1 [2]) was 1.

With “TPRQSPI (disulfide) [C5, C7C phage display peptide TPRQSPI]” the “relative binding affinity of phage clone” value (CRIP1 [1]) was “lower binding affinity”.

“YDPIWRT (disulfide (positions not given here)) [B2, C7C phage display peptide YDPIWRT]” was tested, and the “Frequency” value (CRIP1 [2]) was 1.

B1: FITC-cyclic-A1M peptide (peptide)
peptide: H-CLDGGGKGCGGGSK-NH2
modifications: disulfide 1-9 (inferred); not fully specified (residue 14); printed as NH_2_-C-L-D-G-G-G-K-G-C-G-G-G-S-K-(FITC)-CONH_2_
notes: also called FITC-A1M; modified A1; source: synthetic peptide (Fmoc chemistry, HPLC purified, cyclised by oxidation in DMSO)
Work on B1 yielded a Kd [3] of 2.6 µM.

B2: unlabeled A1 peptide (peptide)
peptide: CLKDNHRSCGGGSK
modifications: disulfide 1-9 (inferred)
notes: also called original A1 peptide; source: synthetic peptide
In the case of B2, the IC50 [4] is reported as 8.8 µM.

CLDGGGKGCGGGSK (disulfide 1-9 (inferred), source: synthetic peptide) [unlabeled A1M peptide] showed an IC50 [4] of 0.32 µM and a Ki [4] of 0.067 µM.

B3: FITC-cyclic-B5 peptide (peptide)
peptide: CYDPIWRTCGGGSK-NH2
modifications: disulfide 1-9 (inferred); not fully specified (residue 14); printed as C-Y-D-P-I-W-R-T-C-G-G-G-S-K-(FITC)-CONH_2_
notes: insert of phage clone B5 (C7C library) followed by the phage spacer Gly-Gly-Gly-Ser and a C-terminal Lys for labelling; also called FITC-B5; source: synthetic peptide (Fmoc chemistry, HPLC purified, cyclised by oxidation in DMSO)
In the case of B3, the Kd [5] is reported as 62.5 µM.

B4: FITC-cyclic-A1 peptide (peptide)
peptide: H-CLKDNHRSCGGGSK-NH2
modifications: disulfide 1-9 (inferred); not fully specified (residue 14); printed as NH_2_-C-L-K-D-N-H-R-S-C-G-G-G-S-K-(FITC)-CONH_2_
notes: insert of phage clone A1 (C7C library) followed by the phage spacer Gly-Gly-Gly-Ser and a C-terminal Lys for labelling; also called FITC-A1; parent A1 peptide; source: synthetic peptide (Fmoc chemistry, HPLC purified, cyclised by oxidation in DMSO)
B4 was tested, and the Kd [5] was 34.4 µM.
